Laboratory results from patent publication US20010007016A1, “PEPTIDE DERIVATIVES” (priority 1994, published 2001).

Legend:
Mice [1] = assay: Analgesic activity by pressure stimulation method, Method A (UGO BASILE analgesy meter Model 7,200, tail pressure in grams); format: in vivo; settings: for ED50: Mus musculus, read-out: ED50 (dose that induced 50 percent of % of MPE)
Procedure: (§1) The analgesic activities of the peptide derivatives of the present invention were evaluated by the pressure stimulation method using one of two devices. In method A, analgesy meter Model 7,200 manufactured by UGO BASILE (Comerio, Italy) was used (units of tail pressure expressed in grams). In method B, an apparatus made by inventor Professor S. Sakurada was used (units of tail pressure expressed in mmHg). Mice were subjected to pressure stimulation at the bases of their tails at a given rate(Method A: 32 g/s; Method B: 10 mmHg/second). […] For the experiments, mice that normally responded to a given pressure of 100-200 g (Method A) or 40-50 mmHg (Method B) were used. The maximum stimulating pressure was 500 g (Method A) or 100 mmHg (Method B). Analgesic activity was calculated as percent of maximum possible effect (% of MPE) according to the equation: [formula]
(§2) Wherein Po is the pain reaction threshold before the administration of a drug; Pt is the pain reaction threshold “t” minutes after the administration of the drug; and Pc is the maximum stimulating pressure. ED5 0 values were calculated based on dose response curves as doses that induced 50 percent of % of MPE and analgesic activities of the drugs were compared. The results obtained from subcutaneous administration (s.c.; skin on the backs of the mice was used) and oral administration (p.o.) are shown in Table 3.

Mice [2] = assay: Analgesic activity by pressure stimulation method, Method B (apparatus made by Professor S. Sakurada, tail pressure in mmHg); format: in vivo; settings: for ED50: Mus musculus, read-out: ED50 (dose that induced 50 percent of % of MPE)
Procedure: as §1, §2

| Compound | ED50 (dose that induced 50 percent of % of MPE) (Mice [2]; s.c.) [mg/kg] | ED50 (dose that induced 50 percent of % of MPE) (Mice [1]; p.o.) [mg/kg] | ED50 (dose that induced 50 percent of % of MPE) (Mice [1]; s.c.) [mg/kg] | further results |
| --- | --- | --- | --- | --- |
| CN1CC[C@]23c4c5ccc(O)c4O[C@H]2[C@@H](O)C=C[C@H]3[C@H]1C5 [morphine, reference compound] | – | – | – | ED50 (Mice [1]; po): 22.2 mg/kg; ED50 (Mice [1]; sc): 3.3 mg/kg; ED50 (Mice [2]; po): 29.6 mg/kg; ED50 (Mice [2]; sc): 4.6 mg/kg |
| H2NC(NH)-Tyr-D-Arg-Phe-N(CH3)CH2COOH | 0.13 | – | – | ED50 (dose that induced 50 percent of % of MPE) (Mice [2]; p.o.): 4.9 mg/kg |
| H2NC(NH)-Tyr-D-Arg-Phe-N(CH3)CH2CH2COOH | – | 5.8 | 0.09 | – |
| H2NC(NH)-Tyr-D-Arg-Phe-N(CH3)CH2COHN2 | 0.27 | – | – | – |
| H2NC(NH)-Tyr-D-Arg-Phe-N(Me)2 | 1.22 | – | – | – |
| H2NC(NH)-Tyr-D-Arg-Phe-NHCH2CH2COOH | – | 18.5 | 0.32 | – |
